Measurements taken from patent publication US20210038661A1, “TREATMENT OF TUMORS BY A COMBINATION OF AN ONCOLYTIC ADENOVIRUS AND A CDK4/6 INHIBITOR” (KLINIKUM RECHTS DER ISAR DER TECHNISCHEN UNIVERSITÄT MÜNCHEN, priority 2018, published 2021).

Legend:
[1] = tested on: T24 cells; experiment: Potency assay (SRB) of T24 cells, XVir-N-31, Palbociclib and JQ-1; type: cell-based, human
Protocol: 5000 T24 cells were seeded in 12 well plates and grown in 1 ml RPMI-Medium containing 10% FCS. Next day cells were treated with 500 nM Palbociclib and 300 nM JQ-1. 24 hours post treatment cells were infected with indicated MOIs of XVir-N-31 in 200 μl RPMI-Medium containing no FCS. After 1 hour 800 μl RPMI-Medium containing 10% FCS were added into each well. In addition, 500 nM Palbociclib and 300 nM JQ-1 were added to the medium. SRB-Staining took place 5 days post infection. Mock treated cells were set 100% cell survival.

[2] = tested on: SK-N-MC cells; experiment: Potency assay (SRB) of SK-N-MC cells, XVir-N-31, Abemaciclib and JQ1; type: cell-based; conditions: 500 nM JQ1 added to 200 nM Abemaciclib, XVir-N-31, 5 days post infection
Protocol: FIG. 16 is a bar diagram showing the result of a potency assay of SK-N-MC cells 5 days after exposure to XVir-N-31 alone, with 200 nM abemaciclib, 500 nM JQ1 or a combination of 200 nM abemaciclib and 500 nM JQ1, as percentage cell survival, whereby the cells were either not infected or infected with an MOI of 5, 10 or 20.
100.000 SK-N-MC cells/well were seeded in 12-well plates and grown in RPMI Medium containing 10% FCS at 5% CO2 at 37° C. Cells were treated with 200 nM Abemaciclib+500 nM JQ1 24 hours before and again 1 hour post infection by adding appropriate amount to the medium. Infection of XVir-N-31 took place in 500 μl in RPMI Medium without serum. SRB-Staining took place 5 days post infection. Mock treated cells were set 100% cell survival.

[3] = tested on: SK-N-MC cells; experiment: Cell cycle distribution (propidium iodine) of SK-N-MC cells; type: cell-based; conditions: 48 hours post treatment
Protocol: 48 hours post treatment cells were washed twice took place with PBS (containing RNase A,100 U/ml). Cells were trypsinized and centrifuged at 1500 rpm, 4° C. for 5 min. Cells are fixed by adding slowly 1 ml of ice-cold 80% Ethanol drop by drop to the pellet and incubated overnight. Staining was performed by adding 1 ml of staining solution (Propidium Iodine,50 μg/ml) to the cells and incubating 30-60 min at RT with gentle rocking. MK: MK-1775; LY: LY-2835219.

[4] = tested on: UMUC cells; experiment: Western blot of Rb, phRB and E2F-1 in UMUC cells treated with cell cycle inhibitors; type: cell-based, human; conditions: 24 hours post-treatment; for Rb, phRB and E2F-1 expression: indicated concentrations
Protocol: Western Blot analysis of UMUC cells treated with indicated concentrations of CI-1040, Roscovitine, Nutlin-3a and LEE011 (Ribociclib). 1×10^6 cells were seeded in 10 cm dishes. 24 hours post-treatment proteins were isolated using 1% SDS buffer, to achieve the disruption of the nuclear membrane. All samples were drawn up several times into a syringe to disrupt the DNA and subsequently centrifuged at 30000 rpm at 4° C. for 30 minutes. The supernatant was transferred to a new reaction tube and directly used for further steps or stored at −80° C. To separate the proteins a sodium dodecyl sulfate polyacrylamide gel electrophoresis was performed. By means of electrophoresis for approximately two hours at 100V at 4° C., 40 μg of total proteins were loaded and probed against specific indicated antibodies.

[5] = tested on: UMUC3 cells; experiment: Cell cycle analysis (EdU/PI flow cytometry) of UMUC3 cells; type: cell-based, human; conditions: 48 hours; Roscovetine 10 μM, CI-1040 1 μM, Nutlin-3a 10 μM, LEE011 10 μM
Protocol: FIG. 10 is a bar diagram showing cell cycle distribution in UMUC3 cells, measured 48 hours post treatment, whereby the concentrations of the CDK4/6 inhibitors was as follows: Roscovetine: 10 μM, CI-1040: 1 μM, Nutlin-3a: 10 μM, and LEE011: 10 μM.
For cell cycle analysis cells were seeded in 6 well plates (2,5×10E4 c/well). 8 hours before infection with dl703, cells were treated with indicated concentration of cell cycle inhibitors. After infection with 10 MOI dl703 cells were again treated for 48 hours. Untreated cells and dl703 infected cells only, served as control. 48 h post infection cells were harvest by trypsinization and fixed with 80% ethanol while vortexing. To investigate the cell cycle status, fixed cells were centrifuged 5 min at RT and 300 g and ethanol was aspirated. Cells were resuspended and washed with 1%BSA-PBS (Bovine Serum Albumin) and again centrifuged. Cells were stained with EDU and cell cycle analysis were performed using the Click-iT™ Plus EdU Flow Cytometry Assay Kits, Catalog nos. C10632 from Thermo Fischer. In addition, after 3× times washing with 1% BSA/PBS cells were stained with PI (Propidium Iodine, 50 μg/ml). Measurement was directly performed after staining with a FACScalibur Flow Cytometry System. Data was analyzed with FlowJo software.

[6] = tested on: T24 cells; experiment: IC-80 value of PARPi in T24 cells; type: cell-based; conditions: Homo sapiens, T-24
Protocol: 3000 T24 cells were seeded per well in 12-well plates and grown over-night in RPMI Medium containing 10% FCS at 37° C. Inhibitor-treatment of cells occurred 24 h past cell seeding and again 1 hour after infection by adding indicated concentration to the medium. Infection of cells took place 24 h past inhibitor-treatment in 250 μl Medium without serum. Fixation and SRB-staining took place at 1-5 days post infection (dpi: days post infection). 15 nM PARPi correspond to the IC-80 value in T24 cells.

[7] = tested on: UMUC3 cells; experiment: IC-80 value of PARPi in UMUC3 cells; type: cell-based; conditions: Homo sapiens
Protocol: Seeding of UMUC-3: 3000 cells were seeded per well in 12-well plates and grown over-night in DMEM Medium containing 10% FCS at 37° C. Inhibitor-treatment of cell occurred 24 h past seeding and again 1 hour after infection by adding indicated concentration to the medium. Infection of cells took place 24 h past inhibitor-treatment. Fixation and SRB-staining took place at 1-6 days post infection (dpi: days post infection). 160 nM PARPi correspond to the IC-80 value in UMUC3 cells.

[8] = tested on: dl703; experiment: DNA-replication analysis of dl703 in UMUC cells treated with cell cycle inhibitors (fiber qPCR); type: cell-based, Mastadenovirus, Type C, Serotype 5
Protocol: To investigate the differences in replication of d1703 (Mantwill et al. 2013, Journal of Translational Medicine, 11, 216) under different treatment conditions, DNA-replication analysis was performed. 100.000 UMUC cells were seeded in 6-well plates and grown in DMEM medium containing 10% FCS in 5% CO2 conditions at 37° C. 24 hours post seeding cells were treated for 24 hours with 10 μM Lee (Ribociclib), 1 μM CI-1040, 10 μM Nutlin-3a and 10 μM Roscovertine and again after infection adding an appropriate amount of inhibitors to the medium. Infection with 50 MOI dl703 (Mastadenovirus, Type C, Serotype 5 with a 3.2 kb sized deletion in E1 region) took place 24 hours post treatment. After 4 and 48 hours post infection DNA were isolated and qPCR was performed using specific primers for the viral fiber gene. Fiber fwd. 5′-[…]-3′; Fiber rev. 5′-[…]-3′.

[9] = tested on: 253J; experiment: IC50 concentration of PD-0332991 in bladder cancer cell line 253J; type: cell-based; conditions: Homo sapiens
Protocol: (§1) The class of CDK4/6 inhibitors as subject to Example 5 requires expression of RB. Therefore, three RB positive and two RB negative bladder cancer derived cell lines were used and the cells treated with the combination therapy. Cell lines were pretreated for 24 hours with an IC50 concentration of PD-0332991 (T24: 500 nM, RT112: 2000 nM, 253J: 100 nM) and infected with XVir-N-31(T24 M0150, 253J MOI 25, RT112 MOI450). Values are the average of at least 2 independent experiments. Error bars show the standard error. Four dpi, cell viability was measured using SRB assays (a, c). (b, d) Lysates of cells were prepared 3 dpi and a titer test was performed on Hek293 cells. Viral titer is shown as fold change relative to control

[10] = tested on: RT112; experiment: IC50 concentration of PD-0332991 in bladder cancer cell line RT112; type: cell-based; conditions: Homo sapiens, RT-112
Protocol: as §1

[11] = tested on: T24; experiment: IC50 concentration of PD-0332991 in bladder cancer cell line T24; type: cell-based; conditions: Homo sapiens, T-24
Protocol: as §1

With Cc1sc2c(c1C)C(c1ccc(Cl)cc1)=N[C@@H](CC(=O)OC(C)(C)C)c1nnc(C)n1-2 [JQ1, thieno-triazolo-1-4-diazepine] the “cell killing capacity of XVir-N-31” value ([1]; 300 nM JQ-1 with 500 nM Palbociclib, low MOIs, 5 days post infection) was “increased the cell killing capacity”, the “cell killing of XVir-N-31” value ([1]; mono-therapy with 300 nM JQ1, 10 and 20 MOI) was “did not increase cell killing” and the cell killing [2] was “did not increase cell killing”.
With CCN1CCN(Cc2ccc(Nc3ncc(F)c(-c4cc(F)c5nc(C)n(C(C)C)c5c4)n3)nc2)CC1 [LY-2835219, abemaciclib] the cell cycle distribution [3] was “no effect”.
COc1ccc(C2=N[C@@H](c3ccc(Cl)cc3)[C@@H](c3ccc(Cl)cc3)N2C(=O)N2CCNC(=O)C2)c(OC(C)C)c1 [Nutlin-3a] was tested, and the “Rb, phRB and E2F-1 expression” value [4] was “no pronounced effect” and the cell cycle distribution [5] was “only little or no effect”.
CC[C@H](CO)Nc1nc(NCc2ccccc2)c2ncn(C(C)C)c2n1 [Roscovitine] was tested, and the “Rb, phRB and E2F-1 expression” value [4] was “no pronounced effect” and the cell cycle distribution [5] was “slight increase of G2/m arrested cells”.
For C=CCn1c(=O)c2cnc(Nc3ccc(N4CCN(C)CC4)cc3)nc2n1-c1cccc(C(C)(C)O)n1 [MK-1775], the cell cycle distribution ([3]; 500 nM, alone) was “increase of cells in G2/M”.
Cn1ncnc1[C@H]1c2n[nH]c(=O)c3cc(F)cc(c23)N[C@@H]1c1ccc(F)cc1 [BMN673] showed an IC80 [6] of 15 nM and an IC80 [7] of 160 nM.
In the case of CN(C)C(=O)c1cc2cnc(Nc3ccc(N4CCNCC4)cn3)nc2n1C1CCCC1 [LEE011, ribociclib], the “E2F-1 as well as Rb and phRb expression” value ([4]; 10 μM) is reported as “induced inhibition”, the cell cycle distribution [5] is reported as “clear G1-arrest” and the “increase of viral DNA replication of dl703” value ([8]; 10 μM, 50 MOI dl703, 48 hours post infection) is reported as ~100 fold.
O=C(NOCC1CC1)c1ccc(F)c(F)c1Nc1ccc(I)cc1Cl [CI-1040] was tested, and the “E2F-1 as well as Rb and phRb expression” value ([4]; 1 μM) was “induced inhibition”, the cell cycle distribution [5] was “clear G1-arrest” and the “viral DNA replication of dl703” value ([8]; 1 μM, 50 MOI dl703) was “much lower compared to Ribociclib treated cells”.
With CC(=O)c1c(C)c2cnc(Nc3ccc(N4CCNCC4)cn3)nc2n(C2CCCC2)c1=O [PD-0332991, palbociclib] the IC50 [9] was 100 nM, the IC50 [10] was 2000 nM and the IC50 [11] was 500 nM.
